Usually inhibition stands for how much of the control response was suppressed.

Among the data in ChEMBL document CHEMBL4052601, “Glycybridins A-K, Bioactive Phenolic Compounds from Glycyrrhiza glabra” (J Nat Prod, 2017) are inhibition values, retold here.

Test [1] addresses T1, Tyrosine-protein phosphatase non-receptor type 1 (Homo sapiens) (UniProt P18031).
T1 sequence (whole entry): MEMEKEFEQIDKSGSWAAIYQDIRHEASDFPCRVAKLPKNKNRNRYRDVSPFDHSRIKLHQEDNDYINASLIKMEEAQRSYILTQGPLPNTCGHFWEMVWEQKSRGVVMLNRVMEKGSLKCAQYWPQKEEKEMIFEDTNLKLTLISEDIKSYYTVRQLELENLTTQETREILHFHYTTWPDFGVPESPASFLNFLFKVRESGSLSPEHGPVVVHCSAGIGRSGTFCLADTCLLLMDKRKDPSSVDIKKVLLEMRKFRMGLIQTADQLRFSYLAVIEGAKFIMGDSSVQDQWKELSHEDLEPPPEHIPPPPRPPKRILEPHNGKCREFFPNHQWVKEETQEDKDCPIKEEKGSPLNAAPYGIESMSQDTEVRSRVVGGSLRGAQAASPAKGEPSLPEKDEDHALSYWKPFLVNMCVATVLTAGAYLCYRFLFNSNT
To be noted: at 10 µM.
Description: Inhibition of recombinant human PTP1B using pNPP as substrate at 10 uM after 30 mins relative to control

In another test the test system is RAW264.7. Nature of the test: Antiinflammatory activity against mouse RAW264.7 cells assessed as inhibition of LPS-induced nitric oxide production at 10 uM after 24 hrs by Griess assay relative to control. The format is functional. As to conditions: RAW264.7, 24 h. On the technique in general: The Griess reaction detects nitrite, a stable product of nitric oxide.

The subject of another test is A549. Nature of the test: Antiproliferative activity against human A549 cells at 10 uM after 24 hrs by MTS assay relative to control. The format is functional. As to conditions: A549, 24 h. Background: Tetrazolium assays rely on reduction of a dye to a coloured formazan, in cell work by metabolically active cells.
The test system of the next test is SW480. Nature of the test: Antiproliferative activity against human SW480 cells at 10 uM after 24 hrs by MTS assay relative to control. Type of test: functional. As to conditions: SW480, 24 h.
For a further test, the system named is MCF7. Nature of the test: Antiproliferative activity against human MCF7 cells at 10 uM after 24 hrs by MTS assay relative to control. Type of test: functional. As to conditions: MCF7, 24 h.
For another test, the system named is HepG2. Nature of the test: Antiproliferative activity against human HepG2 cells at 10 uM after 24 hrs by MTS assay relative to control. The format is functional. As to conditions: HepG2, 24 h.
The subject of the next test is Homo sapiens. Nature of the test: Inhibition of LPS-induced NF-kappaB (unknown origin) transactivation expressed in human SW480 cells at 10 uM administered 1 hr after LPS stimulation measured after 6 hrs by luciferase reporter gene assay relative to control. Type of test: cell-based. (In general: In a reporter assay the amount or activity of a reporter protein is the signal.)

For test [2], the target named is T2, Tyrosinase (Homo sapiens) (UniProt P14679).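 Further: tyrosinase of unspecified origin acting on L-tyrosine, compound preincubated with enzyme for 15 min before adding substrate, inhibition expressed versus control.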
T2 sequence (whole entry): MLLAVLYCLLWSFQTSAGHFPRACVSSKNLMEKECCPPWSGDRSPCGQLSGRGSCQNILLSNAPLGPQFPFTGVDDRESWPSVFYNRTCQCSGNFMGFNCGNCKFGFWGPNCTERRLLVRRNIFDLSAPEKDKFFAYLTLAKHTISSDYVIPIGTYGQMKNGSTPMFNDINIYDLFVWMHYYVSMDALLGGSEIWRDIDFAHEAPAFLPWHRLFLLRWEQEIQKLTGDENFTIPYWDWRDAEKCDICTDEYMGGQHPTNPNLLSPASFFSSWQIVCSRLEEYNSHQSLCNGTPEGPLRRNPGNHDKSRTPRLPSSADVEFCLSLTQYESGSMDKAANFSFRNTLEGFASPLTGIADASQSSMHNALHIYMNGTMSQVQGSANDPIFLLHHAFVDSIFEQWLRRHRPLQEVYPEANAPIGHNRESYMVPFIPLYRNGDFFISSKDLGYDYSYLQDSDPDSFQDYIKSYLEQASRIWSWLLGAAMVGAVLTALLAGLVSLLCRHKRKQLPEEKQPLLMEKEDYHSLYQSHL
As to conditions: at 10 µM.
Description: Inhibition of tyrosinase (unknown origin) using L-tyrosine as substrate at 10 uM preincubated for 15 mins followed by substrate addition relative to control

Take `CC(C)=CCc1c(O)ccc2c1OC[C@@H](c1ccc3c(c1O)C=CC(C)(C)O3)C2`: the figures for the inhibition (in test [1]; in the test on Homo sapiens; in test [2]) were 5.5%, 40.2% and 12.9%, respectively. Further, the inhibition at 10 µM in the test with RAW264.7 was determined as 3.6%; with A549 it was 10.2%; in the test with SW480, 20.2%; with MCF7, 60.9%; in the test with HepG2, 15.9%.
For the molecule `COc1ccc([C@@H]2COc3c(ccc(O)c3CC=C(C)C)C2)c(O)c1O`, the inhibition in test [1] turned out to be 80%; in the test on Homo sapiens, 8.4%; in test [2] it was 20.1%. The inhibition at 10 µM in the test on RAW264.7 worked out at 33%; with A549, 15.5%; with SW480 it was 0.2%; in the test with MCF7 it was 30.4%; in the test on HepG2, 38%.
As for `CC1(C)C=Cc2c(cc(O)c3c(=O)c(-c4ccc(O)cc4)coc23)O1` [DERRONE], the inhibition in test [1] is 21%; in the test with Homo sapiens, 30.8%; in test [2] it was 11%. For the same molecule, the inhibition at 10 µM in the test with RAW264.7 was 0%; in the test with A549 it was 0%; in the test on SW480, 0%; in the test on MCF7, 13.6%; in the test with HepG2, 23.7%.
As for `CC1(C)C=Cc2c(ccc3cc(-c4ccc(O)cc4O)oc23)O1`, the values for the inhibition (in test [1]; with Homo sapiens; in test [2]) were 73.1%, 17% and 66.9%, respectively. Besides, the inhibition at 10 µM in the test on RAW264.7 was 14.2%; with A549 it was 0%; in the test with SW480 it was 27.6%; in the test with MCF7, 20.4%; with HepG2, 12.3%.
With `O=C1C[C@@H](c2ccc(O)cc2)Oc2cc(O)ccc21` [LIQUIRTIGENIN], the inhibition is 9.8% in test [1], 0% in the test with Homo sapiens and 4.6% in test [2]. The inhibition at 10 µM in the test on RAW264.7 is 2.8%; with A549, 0%; with SW480, 7.5%; with MCF7, 7.7%; in the test on HepG2 it was 7%.
For the molecule `CC1(C)C=Cc2c(ccc(-c3coc4cc(O)ccc4c3=O)c2O)O1` [GLABRONE], the values for the inhibition (in test [1]; in the test with Homo sapiens; in test [2]) were 0.3%, 6.4% and 9.7%, respectively. The inhibition at 10 µM in the test with RAW264.7 was found to be 42%; in the test on A549, 0%; in the test on SW480, 45.4%; in the test on MCF7, 36.1%; in the test on HepG2, 29.2%.
As for `CC(C)=CCc1cc([C@H]2Oc3c(ccc4c3C=CC(C)(C)O4)C(=O)[C@@H]2O)ccc1O`, the inhibition in test [1] was 10.6%; in the test on Homo sapiens it was 40.3%; in test [2] it was 8.1%. In addition, the inhibition at 10 µM in the test with RAW264.7 turned out to be 0.3%; with A549, 21.2%; in the test on SW480 it was 9.2%; with MCF7, 13.5%; with HepG2, 42.9%.
On to `COc1ccc(C2(O)COc3c(ccc(O)c3CC=C(C)C)C2=O)c(O)c1` (configuration not stated), for which the inhibition in test [1] stood at 10.1%; with Homo sapiens it was 13.7%; in test [2], 13.6%. Besides, the inhibition at 10 µM came out at 5.5% with RAW264.7; 39.1% in the test on A549; 4.2% in the test on SW480; 2.8% in the test on MCF7; 1.6% in the test with HepG2.
On to `CC1(C)C=Cc2c(ccc3c2OCC(c2ccc(O)cc2O)=C3)O1`, for which the inhibition in test [1] stood at 6.1%; with Homo sapiens, 13.7%; in test [2], 50.9%. In addition, the inhibition at 10 µM is 21.4% in the test on RAW264.7; 2.1% in the test with A549; 0% with SW480; 1.9% in the test with MCF7; 0% with HepG2.
With `CC(C)=CCc1cc([C@@H]2CC(=O)c3ccc(O)cc3O2)ccc1O` [ABYSSINONE II], the inhibition came to 4.2% in test [1], 56.6% in the test with Homo sapiens and 7.8% in test [2]. The inhibition at 10 µM in the test with RAW264.7 amounted to 10.5%; with A549, 0%; with SW480, 0%; with MCF7, 42.3%; in the test with HepG2, 44.2%.
For the molecule `CC1(C)C=Cc2c(ccc3cc(-c4ccc(O)cc4O)c(=O)oc23)O1` [KANZONOL W], the values for the inhibition (in test [1]; in the test with Homo sapiens; in test [2]) were 16.2%, 4.5% and 7.6%, respectively. For the same molecule, the inhibition at 10 µM came to 18.9% in the test on RAW264.7; 3.7% in the test with A549; 0% with SW480; 47.3% in the test on MCF7; 32.7% with HepG2.
As to `CC1(C)C=Cc2cc(C[C@@H](O)C(=O)c3ccc(O)cc3O)ccc2O1`, the inhibition came out at 0.2% in test [1], 0% in the test on Homo sapiens and 1% in test [2]. Moreover, the inhibition at 10 µM was 9.3% in the test with RAW264.7; 6.4% in the test with A549; 1.9% with SW480; 19.3% in the test on MCF7; 12.3% with HepG2.
Regarding `O=C1C[C@@H](c2ccc(O)cc2)Oc2cc(O)cc(O)c21` [NARINGENIN], the inhibition turned out to be 4.1% in test [1], 0% in the test on Homo sapiens and 2.2% in test [2]. Besides, the inhibition at 10 µM in the test with RAW264.7 is 0%; in the test with A549, 0.3%; in the test with SW480 it was 0%; with MCF7, 16.8%; in the test on HepG2, 34.5%.
In the case of `CC(C)=CCc1cc(C[C@@H](O)C(=O)c2ccc(O)c(CC=C(C)C)c2O)ccc1O`, the figures for the inhibition (in test [1]; in the test on Homo sapiens; in test [2]) were 37.7%, 33.4% and 0%, respectively. Further, the inhibition at 10 µM is 4.1% in the test with RAW264.7; 7.5% in the test on A549; 72% with SW480; 82.1% with MCF7; 75.2% in the test on HepG2.
As to `CC1(C)C=Cc2cc([C@@H]3CC(=O)c4ccc5c(c4O3)C=CC(C)(C)O5)ccc2O1` [XAMBIOONA], the inhibition in test [1] is 76.9%; with Homo sapiens it was 0%; in test [2] it was 0%. Also, the inhibition at 10 µM in the test with RAW264.7 was 6.9%; in the test with A549, 10.9%; with SW480, 7.9%; in the test with MCF7, 0%; in the test with HepG2, 0%.
As for `CC1(C)C=Cc2c(cc(O)c3c(=O)c(-c4ccc(O)cc4O)coc23)O1`, the inhibition in test [1] amounted to 57.6%; in the test with Homo sapiens, 0%; in test [2] it was 28.7%. The inhibition at 10 µM in the test on RAW264.7 was 5.6%; in the test on A549, 4.3%; with SW480, 29.6%; with MCF7 it was 12.7%; with HepG2, 12.7%.
Regarding `CC(C)=CCc1cc(C[C@@H](O)C(=O)c2ccc(O)cc2O)ccc1O`, the inhibition in test [1] came out at 0.2%; with Homo sapiens it was 23%; in test [2], 10.3%. The inhibition at 10 µM in the test on RAW264.7 turned out to be 7.1%; with A549, 6.1%; in the test on SW480, 4.2%; with MCF7 it was 29.5%; with HepG2, 7.2%.
`CC(C)=CCc1cc([C@H]2Oc3c(ccc(O)c3CC=C(C)C)C(=O)C2O)ccc1O` (some centres not stated): the inhibition was 43.9% in test [1], 37% in the test on Homo sapiens and 0.8% in test [2]. Further, the inhibition at 10 µM is 0% in the test with RAW264.7; 24.8% with A549; 25.2% with SW480; 33.2% with MCF7; 39% in the test on HepG2.
Turning to `COc1ccc(-c2coc3cc(O)ccc3c2=O)cc1` [FORMONONETIN], the inhibition in test [1] turned out to be 9.9%; in the test on Homo sapiens, 0%; in test [2], 4.3%. Besides, the inhibition at 10 µM with RAW264.7 came to 0%; in the test with A549, 15.4%; with SW480 it was 0%; with MCF7 it was 51.8%; with HepG2, 8.2%.
